Assay results reported in ChEMBL document CHEMBL5728174 (2020).

Columns and labels:
[1] = (§1) After a 3-day incubation at 37° C. cell viability was determined by the MTT method as described by Pauwels et al. (J. Virol. Methods 1988, 20, 309-321).To determine the cytotoxicity, cells were seeded at an initial density of 1×10^6 cells/mL in 96 well plates containing Minimum Essential Medium with Earles's salts (MEM-E), L-glutamine, 1 mM sodium pyruvate and 25 mg/L kanamycin, supplemented with 10% fetal bovine serum. Cell cultures were then incubated at 37° C. in a humidified 5% CO2 atmosphere in the absence or presence of serial dilutions of test compounds. Cell viability was determined by the MTT method.; type: cell-based
[2] = as §1; type: cell-based; remark: listed apart in the source

Measured: EC50

CC(C)OC(=O)[C@H](C)N[P@](=O)(OCC1O[C@@H](n2ccc(=O)[nH]c2=O)[C@](C)(F)[C@@H]1O)Oc1ccccc1 (some centres undefined)
> 100 µM: [1] | [1]; 72 h | [2] | [2]; BHK-21, 72 h
